# Assay results: patent US11896707B2, “Cosmetic preparations comprising Daphne extracts” (ETH Zurich, priority 2018, dated 2024)
# Key:
# [1] = Stability test by HPLC-UV-MS analysis; type: physicochemical; settings: storage in DMSO for one week at 50° C.
# [2] = system: HDFB: human dermal fibroblast; test: Toxicity on HDFB; type: cell-based; settings: FIG. 8
# Description: (§1) Toxicity of the extracts according to example 2 was investigated. […] (LEC: lymphatic endothelial cell; HDFB: human dermal fibroblast; HaCaT: immortalized human keratinocyte; BEC: blood endothelial cell). The results are summarized in FIG. 8 and indicate its usefulness in cosmetic applications.
# [3] = system: HaCaT: immortalized human keratinocyte; test: Toxicity on HaCaT; type: cell-based; settings: FIG. 8
# Description: as §1
# [4] = system: LEC: lymphatic endothelial cell; test: Toxicity on LEC; type: cell-based; settings: FIG. 8
# Description: as §1
# [5] = system: lymphatic endothelial cell (LEC); test: LEC sprouting assay (LEC-covered dextran beads, sprouts per bead); type: cell-based
# Experimental: Stimulation of the lymphatic system: Lymph vessels fulfill an important role in order to maintain the microenvironment surrounding tissue in a constant state by removing unwanted substances present in skin as well as water and protein constantly escaping from blood vessels. […] This action was tested using in vitro test methods. In particular, using a model of sprouting assay developed previously (c.f. ADD Reference SCHULZ MM ET AL., PNAS 2012: PMID 22949700), a library of plant extracts was screened for extracts inducing lymphatic endothelial cell (LEC) sprouting. The key findings were further verified and analysed to characterize the active ingredients. The advantageous effects of the plant extracts were further confirmed by conducting relevant cell proliferation assays, in vitro migration assays and LEC tube formation assays. Given the positive results in all above mentioned assays, one can deduct the positive effect of the plant extracts and the active ingredient thereof, on improving lymphatic vascular function.
# After a 24 hour incubation of fluorescently labeled LEC (lymphatic endothelial cell)-covered dextran beads with 10 pg/mL of extracts from a library of 1954 plant-derived samples, sprout formation was assessed by determining the ratio of sprouts per bead. 0.1% DMSO served as a vehicle control. Each extract was tested as 1-plicate and the entire library was screened in two independent replicates.
# Sprout formation was assessed by determining the ratio of sprouts per bead. 0.1% DMSO and VEGF-A (20 ng/mL) served as negative and positive controls respectively.
# 0.1% DMSO served as a vehicle control and VEGF-A (20 ng/mL) as a positive control.
# [6] = system: LEC: lymphatic endothelial cell; test: LEC proliferation in vitro; type: cell-based
# Experimental: Selectivity was examined using D. giraldii extracts. D. giraldii extract (CH3OH) promoted endothelial cell proliferation in vitro. […] At least 2 independent experiments with n=5 were performed for each cell type. LEC: lymphatic endothelial cell; HDFB: human dermal fibroblast; HaCaT: immortalized human keratinocyte; BEC: blood endothelial cell.
# Daphnetoxin induced LEC proliferation most potently at 0.03 pM reaching 247±38% of control (0.1% DMSO).
# [7] = system: BEC: blood endothelial cell; test: Toxicity on BEC; type: cell-based; settings: FIG. 8
# Description: as §1
# [8] = system: lymphatic endothelial cell (LEC); test: Stability test: LEC sprouting activity after storage; type: cell-based; settings: prolonged exposure at 4° C., 25° C. and 50° C. for one week
# Description: The D. giraldii extract and daphnetoxin were subjected to stability tests.
compound,measurement,setting,value
C=C(C)[C@]12C[C@@H](C)[C@@]34OC(c5ccccc5)(O[C@@H]1[C@@H]3[C@@H]1O[C@]1(CO)[C@@H](O)[C@]1(O)C(=O)C(C)=C[C@H]14)O2 [Daphnetoxin],stability by HPLC-UV-MS analysis,[1],confirms stability
same,cytotoxic effects on HDFB,[2],did not evoke any cytotoxic effects
same,cytotoxic effects on HaCaT,[3],did not evoke any cytotoxic effects
same,cytotoxic effects on LEC,[4],did not evoke any cytotoxic effects
same,"LEC sprouting, sprouts/bead","[5]; at 100 nM, FIG. 7A",4.05 sprouts/bead
same,sprouting activity of HPLC fractions (HPLC-based activity profiling),"[5]; fraction from D. giraldii dichloromethane extract, FIG. 6",main active compound
same,concentration from which LEC sprouting is significantly induced,"[5]; further experiment, 6 replicates, FIG. 7A",≥ 10 nM
same,concentration from which LEC proliferation is significantly induced,"[6]; 6 replicates, FIG. 7B",≥ 0.003 pM
same,"LEC proliferation, specificity","[6]; Ex. 8, FIG. 8",promoted lymphatic endothelial cell proliferation specifically
same,LEC proliferation,"[6]; at 0.03 pM (most potent concentration), FIG. 7B",247±38 % of control (0.1% DMSO)
same,cytotoxic effects on BEC,[7],did not evoke any cytotoxic effects
same,activity of LEC sprouting after storage,[8],consistent activity of LEC sprouting
